From patent publication US5736376A, “Recombinant endothelin converting enzyme-2 and its use in ECE inhibitor screening” (Board of Regents, The University of Texas System, priority 1995, dated 1998)
Entries after “also recorded” stand apart in the source; their conditions may differ. One block for each molecule: values may come before it. Where no end group is shown, it is not given here.

Experiments:
ECE-1 [1] = biological target: T1, ECE-1 (Bos taurus, UniProt P42891); assay: Protease inhibitor assay of ECE-1, solubilized CHO/ECE-1 membranes, big ET-1 conversion, pH 6.8; assay type: biochemical, bovine; details: for Percent ECE-1 activity remaining with inhibitor (of control): Inhibitor 100 μM, solubilized CHO/ECE-1 membranes, control 100; for inhibition of ECE-1: sensitivity to protease inhibitors, Table 2
T1 construct: made in house
T1 sequence (P42891 1-754): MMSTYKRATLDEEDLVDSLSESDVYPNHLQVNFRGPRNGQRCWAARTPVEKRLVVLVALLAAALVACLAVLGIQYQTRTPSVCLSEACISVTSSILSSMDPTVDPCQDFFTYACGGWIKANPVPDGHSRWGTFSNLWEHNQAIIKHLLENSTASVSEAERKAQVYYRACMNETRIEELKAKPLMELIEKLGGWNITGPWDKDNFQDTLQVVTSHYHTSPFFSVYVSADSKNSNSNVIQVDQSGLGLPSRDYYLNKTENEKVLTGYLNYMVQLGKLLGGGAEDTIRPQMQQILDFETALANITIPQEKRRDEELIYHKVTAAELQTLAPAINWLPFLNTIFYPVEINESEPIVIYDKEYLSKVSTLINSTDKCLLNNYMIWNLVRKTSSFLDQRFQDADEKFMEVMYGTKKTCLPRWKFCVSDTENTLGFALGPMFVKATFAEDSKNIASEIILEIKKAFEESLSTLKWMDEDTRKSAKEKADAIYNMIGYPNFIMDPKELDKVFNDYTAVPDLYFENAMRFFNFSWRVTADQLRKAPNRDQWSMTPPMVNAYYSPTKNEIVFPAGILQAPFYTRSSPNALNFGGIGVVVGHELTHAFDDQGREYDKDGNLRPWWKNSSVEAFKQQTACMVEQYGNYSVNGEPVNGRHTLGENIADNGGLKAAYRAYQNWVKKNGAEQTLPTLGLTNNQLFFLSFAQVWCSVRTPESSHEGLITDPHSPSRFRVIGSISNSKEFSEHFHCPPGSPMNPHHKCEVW
Protocol: Solubilized crude membranes were prepared in parallel from CHO/ECE-2 and CHO/ECE-1 cells as described (Xu et al., 1994). For protease inhibitor studies, membranes were prepared without protease inhibitors. Standard reaction mixtures for the ECE-2 assay (50 μl) contained 0.1M 2-[N-morpholino]ethanesulfonic acid (MES) buffer (pH 5.5), 0.5M NaCl, 0.1 μM human big ET-1 and an enzyme fraction. ECE-1 assay reactions contained 0.1M phosphate buffer (pH 6.8) instead of the MES buffer. For the pH profiling and isopeptide selectivity studies, the buffer solution (0.1M) or the substrate (0.1 μM) was substituted as designated. For the inhibitor studies, the reactions were preincubated at 37° C. with protease inhibitor or vehicle for 15 min. Reactions were started by the addition of substrate, and incubated at 37° C. for 30 min in siliconized 0.5-ml microcentrifuge tubes. […] The mixture was then directly assayed for mature ET-1 as described (Suzuki et al., 1989). Duplicate assay wells were used for each enzyme reaction. […] Protein concentrations were determined by the Bradford method (Bio-Rad) using IgG as standard.

ECE-2 [2] = biological target: T2, ECE-2 (Bos taurus, UniProt P0DPE2); assay: Protease inhibitor assay of ECE-2, solubilized CHO/ECE-2 membranes, big ET-1 conversion, pH 5.5; assay type: biochemical, bovine; details: for Percent of control ECE-2 activity remaining with inhibitor: Inhibitor 100 μM, solubilized CHO/ECE-2 membranes, control 100; for inhibition of ECE-2: in vitro sensitivity to inhibitors
T2 construct: solubilized crude membranes or live cells
T2 sequence (P0DPE2 97-883): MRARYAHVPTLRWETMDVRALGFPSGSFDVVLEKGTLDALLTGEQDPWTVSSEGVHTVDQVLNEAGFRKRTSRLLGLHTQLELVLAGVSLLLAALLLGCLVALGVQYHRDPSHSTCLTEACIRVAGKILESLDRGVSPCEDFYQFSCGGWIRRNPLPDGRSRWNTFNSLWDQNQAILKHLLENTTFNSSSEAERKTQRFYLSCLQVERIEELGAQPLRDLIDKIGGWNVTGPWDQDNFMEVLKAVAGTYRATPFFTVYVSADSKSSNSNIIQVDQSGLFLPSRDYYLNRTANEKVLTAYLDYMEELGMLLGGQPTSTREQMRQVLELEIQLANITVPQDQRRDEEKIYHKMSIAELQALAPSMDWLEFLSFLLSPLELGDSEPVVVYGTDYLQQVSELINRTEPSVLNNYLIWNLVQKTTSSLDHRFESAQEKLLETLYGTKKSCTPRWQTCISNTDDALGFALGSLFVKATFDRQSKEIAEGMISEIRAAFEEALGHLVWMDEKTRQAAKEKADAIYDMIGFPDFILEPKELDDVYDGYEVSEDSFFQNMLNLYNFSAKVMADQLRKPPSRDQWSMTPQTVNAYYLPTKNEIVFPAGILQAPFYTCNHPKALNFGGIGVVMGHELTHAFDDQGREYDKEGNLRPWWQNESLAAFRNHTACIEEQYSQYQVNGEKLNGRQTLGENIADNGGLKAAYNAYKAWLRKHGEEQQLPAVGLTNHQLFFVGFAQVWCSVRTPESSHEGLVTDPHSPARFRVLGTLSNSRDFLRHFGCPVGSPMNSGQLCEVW
Protocol: Solubilized crude membranes were prepared in parallel from CHO/ECE-2 and CHO/ECE-1 cells as described (Xu et al., 1994). For protease inhibitor studies, membranes were prepared without protease inhibitors. Standard reaction mixtures for the ECE-2 assay (50 μl) contained 0.1M 2-[N-morpholino]ethanesulfonic acid (MES) buffer (pH 5.5), 0.5M NaCl, 0.1 μM human big ET-1 and an enzyme fraction. […] For the inhibitor studies, the reactions were preincubated at 37° C. with protease inhibitor or vehicle for 15 min. Reactions were started by the addition of substrate, and incubated at 37° C. for 30 min in siliconized 0.5-ml microcentrifuge tubes. […] The mixture was then directly assayed for mature ET-1 as described (Suzuki et al., 1989). Duplicate assay wells were used for each enzyme reaction.

[3] = Stability of big and mature endothelin isopeptides with crude membrane proteins, ECE-2 assay conditions (pH 5.6); assay type: physicochemical
ECE-2 [4] = biological target: T2, ECE-2; assay: Substrate kinetics and isopeptide substrate selectivity of ECE-2; assay type: biochemical, bovine
Protocol: Isopeptide substrate selectivity of ECE-2. Substrates are: closed circles, big ET-1 (1-38); closed squares, big ET-2 (1-38); and closed triangles, big ET-3 (1-41 Amide). Activity is reported as conversion (fmol/30 min) vs μg of membrane protein.
Solubilized crude membranes were prepared in parallel from CHO/ECE-2 and CHO/ECE-1 cells as described (Xu et al., 1994). […] Standard reaction mixtures for the ECE-2 assay (50 μl) contained 0.1M 2-[N-morpholino]ethanesulfonic acid (MES) buffer (pH 5.5), 0.5M NaCl, 0.1 μM human big ET-1 and an enzyme fraction. […] For the pH profiling and isopeptide selectivity studies, the buffer solution (0.1M) or the substrate (0.1 μM) was substituted as designated. […] Reactions were started by the addition of substrate, and incubated at 37° C. for 30 min in siliconized 0.5-ml microcentrifuge tubes. […] The mixture was then directly assayed for mature ET-1 as described (Suzuki et al., 1989). Duplicate assay wells were used for each enzyme reaction. For big ET-2 and big ET-3 conversion assays, mature ET-1 EIA (which fully cross-reacts with mature ET-2) and mature ET-3 EIA were used with human ET-2 and ET-3 as standards, respectively (Matsumoto et al., 1989). Protein concentrations were determined by the Bradford method (Bio-Rad) using IgG as standard.

ECE-1 [5] = biological target: T1, ECE-1; assay: Substrate kinetics and isopeptide substrate selectivity of ECE-1; assay type: biochemical, bovine; details: big ET-1 0.01-10 μM; 20 μg crude membrane proteins, 30 min; read-out: apparent Km of ECE-1
Protocol: Solubilized crude membranes were prepared in parallel from CHO/ECE-2 and CHO/ECE-1 cells as described (Xu et al., 1994). For protease inhibitor studies, membranes were prepared without protease inhibitors. Standard reaction mixtures for the ECE-2 assay (50 μl) contained 0.1M 2-[N-morpholino]ethanesulfonic acid (MES) buffer (pH 5.5), 0.5M NaCl, 0.1 μM human big ET-1 and an enzyme fraction. ECE-1 assay reactions contained 0.1M phosphate buffer (pH 6.8) instead of the MES buffer. For the pH profiling and isopeptide selectivity studies, the buffer solution (0.1M) or the substrate (0.1 μM) was substituted as designated. For the inhibitor studies, the reactions were preincubated at 37° C. with protease inhibitor or vehicle for 15 min. Reactions were started by the addition of substrate, and incubated at 37° C. for 30 min in siliconized 0.5-ml microcentrifuge tubes. […] The mixture was then directly assayed for mature ET-1 as described (Suzuki et al., 1989). Duplicate assay wells were used for each enzyme reaction. For big ET-2 and big ET-3 conversion assays, mature ET-1 EIA (which fully cross-reacts with mature ET-2) and mature ET-3 EIA were used with human ET-2 and ET-3 as standards, respectively (Matsumoto et al., 1989). Protein concentrations were determined by the Bradford method (Bio-Rad) using IgG as standard.

ECE-2 [6] = biological target: T2, ECE-2; assay: Coculture of CHO/ECE-2 and CHO/preproET-1 cells: cleavage of exogenously supplied big ET-1; assay type: cell-based, bovine; details: up to 100 μM
Protocol: (§1) Production of mature ET-1 by CHO/ECE-1-CHO/preproET-1 and CHO/ECE-2-CHO/preproET-1 cocultures: Cleavage of exogenously supplied big ET-1. […] Negative control experiments were performed by coculturing parental CHO cells with CHO/preproET-1 cells. Open circles, CHO/ET-1+CHO/ECE-1 (Phos); closed circles, CHO/ET-1+CHO/ECE-1 (FR); open squares, CHO/ET-1+CHO/ECE-2 (Phos); closed squares, CHO/ET-1+CHO/ECE-2 (FR); open triangles, CHO/ET-1+CHO-K1 (Phos).
(§2) This was tested by coculturing the stable transfectant CHO/preproET-1 cells with either CHO/ECE-1 or CHO/ECE-2 cells, and determining the amount of mature ET-1 in the medium.

ECE-2 [7] = biological target: T2, ECE-2; assay: Double-transfection live cell assay: mature ET-1 secretion by CHO/ECE-2 cells transfected with preproET-1 cDNA; assay type: cell-based, bovine
Protocol: Production of mature ET-1 by CHO/ECE-2 cells transiently transfected with preproET-1 cDNA: Cleavage of endogenously produced big ET-1. Doubly transfected cells were cultured for 12 h in the absence or presence of the designated concentrations of ECE inhibitors, and mature ET-1 in the conditioned medium was determined. Negative control studies with parental CHO cells are shown by dashed lines.
CHO/ECE-2 cells and untransfected CHO cells were transiently transfected in parallel with a preproET-1 construct, and mature ET-1 secreted from these cells into the medium was determined by EIA.
CHO-K1 cells were cultured as described (Xu et al., 1994). Since many batches of tissue culture-grade trypsin preparations contained high levels of metalloprotease contaminants with an ECE-like activity, a highly purified crystallized preparation of trypsin (Sigma, Catalog No. T7418) was dissolved in phosphate-buffered saline at 0.013% (w/v) and used for all trypsinization procedures. […] Twelve hours after the transient transfection, cells were refed with fresh medium with or without ECE inhibitors. The medium was conditioned for an additional 12 h and directly subjected to enzyme immunoassay (EIA) for mature ET-1 (Suzuki et al., 1989).

ECE-1 [8] = biological target: T1, ECE-1; assay: Coculture of CHO/ECE-1 and CHO/preproET-1 cells: cleavage of exogenously supplied big ET-1; assay type: cell-based, bovine
Protocol: as §1, §2

[9] = cartilage; literature; cited from earlier work
big ET-1 [10] = details: cited from earlier work
big ET-1 [11] = assay: pH profile of ECE activity; assay type: biochemical, human
Protocol: FIG. 1B. pH profile of ECE-2. […] Buffers are: open squares, acetate; closed squares, MES; open circles, phosphate; closed circles, Tris; open triangles, glycine.
FIG. 1B is a pH profile of ECE-2. Optimal activity of ECE-2 is at pH 5.5 in contrast to the previously discovered ECE-1, which has optimal activity at pH 6.8. […] In all subsequent studies, ECE-2 assays were performed at pH 5.5. […] A majority of the ECE-2 activity in the CHO/ECE-2 cell homogenates was found in the membrane fraction. No significant ECE-2 activity was detected in the culture supernatants from CHO/ECE-2 cells.
Solubilized crude membranes were prepared in parallel from CHO/ECE-2 and CHO/ECE-1 cells as described (Xu et al., 1994). For protease inhibitor studies, membranes were prepared without protease inhibitors. Standard reaction mixtures for the ECE-2 assay (50 μl) contained 0.1M 2-[N-morpholino]ethanesulfonic acid (MES) buffer (pH 5.5), 0.5M NaCl, 0.1 μM human big ET-1 and an enzyme fraction. ECE-1 assay reactions contained 0.1M phosphate buffer (pH 6.8) instead of the MES buffer. For the pH profiling and isopeptide selectivity studies, the buffer solution (0.1M) or the substrate (0.1 μM) was substituted as designated. […] Protein concentrations were determined by the Bradford method (Bio-Rad) using IgG as standard.

Molecule: O=S(=O)(O)c1cc[c]([Hg][Cl])cc1 [pCMS, p-chloromercuriphenylsulphonic acid]
Percent ECE-1 activity remaining with inhibitor (of control) (ECE-1 [1]): 136%
Percent of control ECE-2 activity remaining with inhibitor (ECE-2 [2]): 345%
inhibition of ECE-2 (ECE-2 [2]): augmented the activity of ECE-2

Molecule: ET-2: Synthetic human ET-2 (CSCSSWLDKECVYFCHLDIIW; ends and bridges not checked; cysteine pairing not given here; UniProt P20800 49-69, looked up)
rate of degradation among isopeptides [3]: degraded at similar rates

Molecule: ET-3: Synthetic human ET-3
rate of degradation among isopeptides [3]: degraded at similar rates

Molecule: big ET-1: Synthetic human big ET-1[1-38] (CSCSSLMDKECVYFCHLDIIWVNTPEHVVPYGLGSPRS; ends and bridges not checked; cysteine pairing not given here; UniProt P05305 53-90, looked up)
relative rate of cleavage by ECE-2 (ECE-2 [4]; 20-40 μg membrane proteins, optimal pH): 100%
Km (ECE-2 [4]; big ET-1 0.01-10 μM, 20 μg crude membrane proteins, 30 min, read-out: apparent Km of ECE-2): 1000 to 2000 nM
Km (ECE-1 [5]): 1000 to 2000 nM
rate of degradation among isopeptides [3]: degraded at similar rates

Molecule: ET-1: Synthetic human ET-1; 21-amino-acid peptide
rate of degradation among isopeptides [3]: degraded at similar rates

inhibition of ECE-1 (ECE-1 [1]): not inhibited
inhibition of ECE-2 (ECE-2 [2]): not inhibited
Molecule: C[C@H](CS)C(=O)N1CCC[C@H]1C(=O)O [Captopril]

Molecule: COc1c2c(c(O)c3c1C(O)Cc1cc(CC(C)O)c(C(=O)O)c(O)c1-3)C(=O)c1cccc(O)c1C2=O (stereo not drawn) [FR901533, 1,6,9,14-tetrahydroxy-3-(2-hydroxypropyl)-7-methoxy-8,13-dioxo-5,6,8,13-tetrahydro-benzo[α]naphthacene-2-carboxylate .cndot. Na]
inhibition of mature peptide production, CHO/ECE-2 coculture (ECE-2 [6]): not inhibited
inhibition of conversion in transfected CHO/ECE-2 cells (ECE-2 [7]; added to medium at up to 1 mM): did not appreciably inhibit the conversion
IC50 (ECE-1 [1]; in vitro, pH 6.8): 2000 nM
inhibition of ECE-1 (ECE-1 [1]): inhibited
inhibition of ECE-2 (ECE-2 [2]): inhibited; also recorded: efficiently inhibits the conversion of big ET-1 by ECE-2 in vitro
IC50 (ECE-2 [2]; in vitro, pH 5.5): 3 µM
IC50 (ECE-1 [8]): ~1000 nM

Molecule: O=C(O)CNC(=O)C(CS)Cc1ccccc1 (stereo not shown) [Thiorphan]
inhibition of ECE-1 (ECE-1 [1]): not inhibited
inhibition of ECE-2 (ECE-2 [2]): not inhibited

Molecule: matrix metalloproteinase-3: matrix metalloprotease in cartilage, matrix metalloproteinase-3 (MMP-3; stromelysin-1)
pH optimum [9]: 5.3-5.5

Molecule: N=C(N)c1ccc(CS(=O)(=O)F)cc1 [APMSF, 4-amidinophenylmethylsulphonyl fluoride]
Percent ECE-1 activity remaining with inhibitor (of control) (ECE-1 [1]): 107%
Percent of control ECE-2 activity remaining with inhibitor (ECE-2 [2]): 93%

B1: ECE-1: type II membrane-bound metalloprotease that processed endogenously produced big ET-1 (protein, UniProt P42892 1-770, looked up)
Endothelin-converting enzyme 1: MRGVWPPPVSALLSALGMSTYKRATLDEEDLVDSLSEGDAYPNGLQVNFHSPRSGQRCWAARTQVEKRLVVLVVLLAAGLVACLAALGIQYQTRSPSVCLSEACVSVTSSILSSMDPTVDPCHDFFSYACGGWIKANPVPDGHSRWGTFSNLWEHNQAIIKHLLENSTASVSEAERKAQVYYRACMNETRIEELRAKPLMELIERLGGWNITGPWAKDNFQDTLQVVTAHYRTSPFFSVYVSADSKNSNSNVIQVDQSGLGLPSRDYYLNKTENEKVLTGYLNYMVQLGKLLGGGDEEAIRPQMQQILDFETALANITIPQEKRRDEELIYHKVTAAELQTLAPAINWLPFLNTIFYPVEINESEPIVVYDKEYLEQISTLINTTDRCLLNNYMIWNLVRKTSSFLDQRFQDADEKFMEVMYGTKKTCLPRWKFCVSDTENNLGFALGPMFVKATFAEDSKSIATEIILEIKKAFEESLSTLKWMDEETRKSAKEKADAIYNMIGYPNFIMDPKELDKVFNDYTAVPDLYFENAMRFFNFSWRVTADQLRKAPNRDQWSMTPPMVNAYYSPTKNEIVFPAGILQAPFYTRSSPKALNFGGIGVVVGHELTHAFDDQGREYDKDGNLRPWWKNSSVEAFKRQTECMVEQYSNYSVNGEPVNGRHTLGENIADNGGLKAAYRAYQNWVKKNGAEHSLPTLGLTNNQLFFLGFAQVWCSVRTPESSHEGLITDPHSPSRFRVIGSLSNSKEFSEHFRCPPGSPMNPPHKCEVW
pH optimum of previously discovered ECE-1 (big ET-1 [10]): 6.8

total endothelin peptides converted to mature ET-1 (ECE-2 [7]; double-transfection assays): up to 40%
B2: ECE-2: novel membrane-bound metalloprotease; 787-amino-acid polypeptide, SEQ ID NO:2 (protein)
chain: MRARYAHVPTLRWETMDVRALGFPSGSFDVVLEKGTLDALLTGEQDPWTVSSEGVHTVDQVLNEAGFRKRTSRLLGLHTQLELVLAGVSLLLAALLLGCLVALGVQYHRDPSHSTCLTEACIRVAGKILESLDRGVSPCEDFYQFSCGGWIRRNPLPDGRSRWNNSNSLWDQNQAILKHLLENTTFNSSSEAERKTQRFYLSCLQVERIEELGAHALRDLIDKIGGWNVTGPWDQDNFMEVLKAVAGTYRATPFFTVYVSADSKSSNSNIIQVDQSGLFLPSRDYYLNRTANEKVLTAYLDYMEELGMLLGGQPTSTREQMRQVLELEIQLANITVPQDQRRDEEKIYHKMSIAELQALAPSMDWLEFLSFLLSPLELGDSEPVVVYGTDYLQQVSELINRTEPSVLNNYLIWNLVQKTTSSLDHRFESAQEKLLETLYGTKKSCTPRWQTCISNTDDALGFALGSLFVKATFDRQSKEIAEGMISEIRVAFEEALGHLVWMDEKTRQAAKEKADAIYDMIGFPDFILEPKELDDVYDGYEVSEDSFFQNMLNLYNFSAKVMADQLRKPPSRDQWSMTPQTVNAYYLPTKNEIVFPAGILQAPFYTCNHPQALNFGGIGVVMGHELTHAFDDQGREYDKEGNLRPWWQNESLAAFRNHTACIEEQYSQYQVNGEKLNGRQTLGENIADNGGLKAAYNAYKAWLRKHGEEQQLPAVGLTNHQLFFVGFAQVWCSVRTPESSHEGLVTDPHSPARFRVLGTLSNSRDFLRHFGCPVGSPMNSGQLCEVW
pH of optimal activity (big ET-1 [11]; conversion of big ET-1): 5.5
activity at neutral pH (6.8) (big ET-1 [11]; standard ECE-1 assay): virtually inactive
